Test results published in a melting point compilation (Tetko et al.; mined from patent text by program, amines drawn as free bases though some values may be those of a salt).

Row | SMILES | melting point [°C]
1 | Cc1c(C2=CCC(c3ccccc3)(N(C)C)CC2)[nH]c2ccc(C#N)cc12 (stereo unspecified) | 180 to 185
2 | COC(=O)C1(CF)C=NN(C)N1 (stereo unspecified) | 64 to 66
3 | C=C(c1ccc(OC)cc1)c1ccc(N2CCCC2)cc1 | 159 to 162
4 | Nc1nc(=O)n(C2CC(O)C(CO)O2)cc1-c1ccccn1 (stereo unspecified) | 197 to 198
5 | CCc1cc2c(OCC(=O)OC)cccc2n1Cc1ccccc1 | 89 to 92
6 | CCOc1ccc(-c2cc(C(F)(F)F)n3cnc(-c4ccncc4)c3n2)cc1C(F)(F)F | 244
7 | C#CC1(OC(C)=O)CCC2C3CCc4cc(OC)ccc4C3CCC21CC (stereo unspecified) | 178 to 182
8 | Clc1cc2nc(NC3=NCCN3)[nH]c2cc1Cl | 265 to 272
9 | Cc1cccc(Nc2n[nH]c3ncnc(NCc4ccccc4)c23)c1 | 200 to 201
10 | O=c1c2c[nH]c3ccccc3c-2nn1-c1cnc2ccccc2c1 | > 350
11 | O=C(NC1CCN(C2CCCCC2)C1)c1cccc(Br)c1 (stereo unspecified) | 128 to 130
12 | O=C(O)c1ccc(CC2(C(=O)O)CCCN2C(=O)Nc2cc(Cl)cc(Cl)c2)cc1 (stereo unspecified) | 145
13 | COc1ccc(-c2csc(Nc3ccncc3)n2)cc1OC | 205 to 207
14 | NC(=O)NC1COCC1c1ccccc1-n1nc(C(F)(F)F)cc1C(F)(F)F (stereo unspecified) | 198 to 200
15 | Cc1ccc2sc(C(=O)O)cc(=O)c2c1 | 236 to 237
16 | CC(C)(C)OC(=O)N1CCc2c(n(CCO)c3c(Cl)c(Cl)ccc23)CC1 | 117 to 120
17 | OC(Cc1ccc(Cl)cc1Cl)(Cn1cncn1)c1ccc(-c2ccccc2)cc1 (stereo unspecified) | 124
18 | CC1(CN2CCN(C(=O)NCC=Cc3ccc(C(F)(F)F)cc3)CC2)Cn2cc([N+](=O)[O-])nc2O1 (stereo unspecified) | 105 to 107
19 | Cc1cccc(NC(=O)NC2CN(C(=O)C3CCCCC3)c3ccccc3N(c3ccccc3)C2=O)c1 (stereo unspecified) | 165 to 168
20 | COc1ccc(Cn2cnc3c(Cl)ncnc32)cc1OC | 159 to 163
21 | CC(C)(C)c1cc(C=Cc2n[nH]c(=O)o2)cc(C(C)(C)C)c1O | > 260

Row | SMILES | melting point [°C]
22 | CCOC(=O)[C@H](Cc1ccc(-c2c(OC)cc(CO)cc2OC)cc1)NC(=O)c1c(F)cccc1Cl | 101 to 104
23 | N#Cc1ncccc1Oc1cccc(F)c1 | 92 to 93
24 | O=C(O)c1ccc(-c2nc(-c3ccc(Br)cc3)cs2)cc1 | > 300
25 | O=C(NC(Cc1c[nH]c2ccccc12)C(=O)OCc1ccccc1C(F)(F)F)c1ccccc1 (stereo unspecified) | 117
26 | O=C(O)COc1cccc2c1CCc1sc(OCCC(c3ccccc3)c3ccccc3)nc1-2 | 165 to 166
27 | CON=C(C(=O)OC)c1csc(NC(=O)CCl)n1 | 131
28 | Cc1ccc(OCC(CO)NC(C)(C)C)c(-c2ccc(=S)[nH]n2)c1 (stereo unspecified) | 130
29 | Cc1cccc2c3c([nH]c12)CCCC3=O | > 247
30 | CS(=O)(=O)Nc1ccncc1-c1ccc2cnc(Nc3ccc(N4CCOCC4)cc3)nn12 | 178 to 180
31 | N=C(Cc1ccccc1)N1CC2C(=O)CCC(c3ccccc3)(c3ccccc3)C2C1 (stereo unspecified) | 195
32 | COC(=O)N1CCN(c2n[nH]c(-c3ccc(Cl)cc3)c2-c2ccncc2)CC1 | 264 to 265
33 | Fc1ccc(-c2cccs2)cc1 | 51 to 52
34 | Cc1nc(O)c(C#N)c(C)c1Br | 254 to 262
35 | CNn1cc(-c2ccccc2)c2ccccc21 | 60 to 62
36 | CNC(=O)c1cccc(NC(=O)Cc2cccc(C)c2)c1 | 131
37 | Nc1nc(O)c2c(n1)NCC(CN(C=O)Cc1ccc(C(=O)N[C@@H](CCC(=O)O)C(=O)O)cc1)C2 (stereo partly specified) | 178
38 | COC1(c2cc(F)cc(Sc3ccc(C(CO)=NO)cc3)c2)CCOCC1 | 145 to 146
39 | O=C(NCCCC1CC1)c1ccc(N2CCC(N3C(=O)C(F)(F)c4ccccc43)CC2)nn1 | 51 to 53
40 | C=CCC1(C(C)CC(=O)O)C(=O)NC(=O)NC1=O (stereo unspecified) | 200
41 | COc1cc(OC)c2c(=O)n(CCCN3CCCC3)c(-c3cc(C)c(OCCCN4CCCC4)c(C)c3)nc2c1 | 109 to 111

Further lines, results first:

Row | melting point [°C] | SMILES
42 | 203 to 204 | COC(=O)c1ccc(-c2nc(NCc3ccc(OC)c(Cl)c3)c3c(n2)sc2ccccc23)cc1
43 | 205 | COCCNC(=O)c1ccc(/C=C/C(=O)O)cc1
44 | 212 to 215 | Cc1ccc(-c2cc(Br)c3[nH]c(=O)ccc3c2)c(C)n1
45 | 180 to 183 | Cc1nc2cnc(N3CCN(CCCC(=O)c4ccc(F)cc4)CC3)cc2[nH]1
46 | 179 | c1ccc(CN2CCCC(c3ncc(-c4cnc(-c5ccccc5)nc4)[nH]3)C2)cc1 (stereo unspecified)
47 | 98 to 112 | FC(F)(F)c1ccc(C2=NNCC2c2ccccc2)cc1 (stereo unspecified)
48 | 87 to 89 | CN(C)c1ccc(C2(CN)CCCC2)cc1
49 | 121 to 124 | CCCc1c(OCCCCCCC2CC(=O)c3ccc(OCC(=O)OC)c(CCC)c3O2)ccc(C(C)=O)c1O (stereo unspecified)
50 | 109 to 110 | CCc1cc(C(=O)c2ccccc2Cl)c(-n2c(C)nnc2CCl)s1
51 | 136 to 137 | CC(C)(C)OC(=O)N1CCC(c2cn(S(C)(=O)=O)c3ccccc23)CC1
52 | 68 to 70 | CC(C)(C)OC(=O)N1CCN(CCc2ccc(F)cc2)CC1
53 | 135 to 138 | COc1nc2cc(Cl)cc(Cl)c2cc1Br
54 | 73 to 75 | CCOC(=O)[C@@H](CO)NCc1c(N)cccc1Cl
55 | 197 to 198 | FC(F)(F)Oc1ccc(-c2coc3ccc(-c4nnc(S)o4)cc23)cc1
56 | 112 to 114 | COc1ccnc(CSc2nc3c(OC(F)F)c(OC)c(OC)cc3[nH]2)c1
57 | 112 to 114 | O=CC1=Cc2cc(OCc3ccccc3)ccc2OC1
58 | 136 to 140 | O=C1CCC(C(=O)O)(c2ccccc2)CC1
59 | 149 | O=C(O)c1csc(CO)c1
60 | 294 to 295 | N#Cc1ccc(-c2ccc(-c3ccc(C#N)cc3)o2)cc1
61 | 198 | O=C(O)c1cn2c(nc1=O)CCCCC2

Row | melting point [°C] | SMILES
62 | 217 | COc1ccc(C2Sc3ccccc3NC(=O)C2CO)cc1 (stereo unspecified)
63 | 202 to 204 | CCCOc1ccccc1Nc1ncc(C(=O)O)c(=O)[nH]1
64 | 70 to 72 | CCCN(CCC)C(=O)c1cc(C(=O)N[C@@H](Cc2cc(F)cc(F)c2)[C@H](O)CNC2(c3cc(CN(C)C)ccn3)CC2)cc(-c2ncco2)c1
65 | 165 to 170 | COc1ccccc1-n1c(=O)[nH]c2c(C(N)=O)nc(Nc3ccc(Cn4ccnc4)cc3)nc21
66 | 109 to 112 | Cc1ccc(OC2CCN(C(=O)C(=O)O)CC2)cc1
67 | > 300 | COc1c(-c2ccc3cc(NS(C)(=O)=O)ccc3c2)cc(NC(N)=O)cc1C(C)(C)C
68 | 127 to 128 | COc1ccc(C2CCN(C(=O)C(=O)NO)CC2)cc1C=C1CCCC1
69 | > 250 | O=C(O)Cn1c(-c2ccc(F)cc2)nc2cccnc21
70 | 187 to 188 | Cc1c(CO)c2c(c(C)c1NC(=O)NC(C)(C)C)C(c1ccc(C(C)C)cc1)CO2 (single isomer, unassigned; (+))
71 | 171 | Cc1cc2c(cc1Cl)NC(=O)CC(c1cccc(-c3ccnc(CNC4CC4)c3)c1)=N2
72 | 205 to 208 | COC(=O)c1cc(=O)c2c(C(F)(F)F)c3c(=O)cc(C(=O)OC)[nH]c3c(Cl)c2[nH]1
73 | 95 to 96 | CCCCCCCCCCCCCCOc1ccc(C(=O)O)s1
74 | > 220 | CC(C)NC(=S)NCc1c(Cl)ccc(C(=O)O)c1Cl
75 | 89 to 91 | COC(=O)c1ccc(Oc2nn(Cc3ccccc3)c3ccccc23)o1
76 | 147 to 148 | NN(C(=O)c1c(F)cccc1Cl)c1ccccc1C(F)(F)F
77 | 194 to 197 | CN1c2ccccc2-c2nccn2-c2ccccc21
78 | 114 to 115 | COC(=O)C(=O)c1ccc(C(=O)NCCOc2ccc3ccccc3c2)cc1
79 | 127 to 129 | O=C(Nc1ccc(-c2nnn[nH]2)cc1)C(=O)N1CCC(Cc2ccccc2)CC1
80 | 221 to 222 | Cc1ccc(Cl)cc1NC(=S)Nc1cc[nH]n1
81 | 152 to 154 | O=Cc1c(Cl)nc2n(c1=O)CCS2

Row | melting point [°C] | SMILES
82 | 77 to 78 | CCCCCC(=O)NC(C(C)=O)c1ccccc1 (stereo unspecified)
83 | > 250 | Cc1nc(-c2ccc(=O)n(C(C)C)n2)c(-c2ccccc2)nc1O
84 | 247 to 249 | O=C1c2ccccc2C(=O)N1CC(=O)N1c2ccccc2N(Cc2ccccc2)C(=O)[C@H]2CCC[C@H]21 (relative stereo)
85 | 110 to 114 | COCCNC1CCc2cc(Nc3ncc(Cl)c(Nc4c(OC)ccc5c4CN(S(C)(=O)=O)CC(=O)N5)n3)c(OC)cc2CC1 (stereo unspecified)
86 | 73 to 75 | N#Cc1c(Cl)c(F)cc(C(=O)Cl)c1Cl
87 | 187 to 189 | COC(=O)[C@H](O)[C@@H](NS(=O)(=O)c1ccc([N+](=O)[O-])cc1)c1ccccc1
88 | 154 to 157 | CCc1ccc(Nc2c(-c3nnc(NCCNC)o3)ccc(F)c2F)c(F)c1
89 | 170 to 173 | CSc1nc2cc(C(F)(F)F)ccc2n1N
90 | 168 | Cn1c(=O)c2c(ncn2CC(O)CN2CCN(CCCS(=O)(=O)c3ccccc3)CC2)n(C)c1=O (stereo unspecified)
91 | 182 to 183 | COc1cc(OC)n2sc(=NS(=O)(=O)c3c(-c4nnn(C)n4)cnn3C)nc2n1
92 | 197 to 198 | CC(C)(CC(O)(Cn1cc(Br)c(=O)c2sccc21)C(F)(F)F)c1cccc2c1OCO2 (stereo unspecified)
93 | 106 to 108 | BrCc1ccc2ccccc2c1Br
94 | 109 to 111 | O=C(c1ccccc1)c1ccc(CCl)cc1
95 | 181 | CCCCn1nc(SCc2ccc(OC)cc2)c(C(=O)O)c1Cc1cc2c(cc1Cl)OCO2
96 | 136 to 140 | Cc1ccc(C2(Cl)c3ccccc3C(=O)c3ccccc32)cc1
97 | 200 to 205 | CC(O)=C1SC(=S)N(c2ccc(Cl)cc2)C1=O
98 | 121 to 124 | CCOC1CC(n2cc(CC)c(=O)[nH]c2=O)OC1CNC(=O)C(C)Oc1ccc(Cl)cc1Cl (mixture of isomers)
99 | 158 to 160 | CCOC(=O)c1nc2cc(Br)ccn2n1
100 | 133 to 135 | CCC(=O)OC(CC)c1ccc(Cl)c2nc3n(c12)CCCN3c1ccc(Cl)cc1Cl (stereo unspecified)
101 | 156 to 157 | CN(c1ncc(Br)cn1)[C@H]1CC[C@H](C#CCO)CC1
